Measurements from patent US20150141375A1 (priority 2009, published 2015).

What was measured:
HSV-1 = test: In vitro potency against dsDNA viruses: HSV-1; type: cell-based
[1] = RPTEC DNA replication (BrdU), metabolic activity (WST-1), proliferation (xCELLigence); type: cell-based, human; conditions: human; BKV-infected RPTECs; read-out: CC-90 (BrdU incorporation reduced to approximately 10% of untreated infected cells)
Description: (§1) RPTECs were infected with BKV(Dunlop). CMX001 was added before and 2 h postinfection (hpi). Cells and supernatants were harvested 24-72 hpi. BKV replication was examined by TaqMan assays, western blotting, IF staining and viability of RPTECs was examined by WST-1 assay, BrdU incorporation and a TaqMan assay.
(§2) To use more sensitive assays, host cell DNA replication and metabolic activity using BrdU incorporation and WST-1 assays in uninfected RPTECs were used. Addition of CMX001 reduced both DNA replication (FIG. 2a) and metabolic activity (FIG. 2b) of uninfected RPTECs in a concentration-dependent manner. Compared to untreated RPTECs, CMX001 at 0.08 to 10 μM decreased DNA replication by 15% to 93% and the metabolic activity by 41% to 88%, respectively.
(§3) The mitocondrial metabolic activity was monitored by the colorimetric WST-1 assay (Roche, Rotkreuz, Switzerland) measuring reduction of the Tetrazolium salt, WST-1, by mitochondrial dehydrogenases. DNA synthesis was quantified by colorimetric measurement of BrdU incorporation into DNA using the “Cell proliferation ELISA, BrdU” kit (Roche). The attachment and proliferation of the cells was measured as impedance using E-plates and the xCelligence system (Roche). In order for the RPTECs to attach and proliferate on the E-plates, the plates were first coated with fibronectin. Next the background impedance of the plates was monitored by addition of 100 μl medium to each well, before the plate was connected to the system and checked in the cell culture incubator for proper electrical-contacts. Subsequently, 100 μl cell suspension containing the indicated cell numbers was seeded. To determine the effect of BKV infection and CMX001 treatment, about 24 h after seeding 150 μl of the media was replaced with fresh media with or without purified BKV-Dunlop in the presence or absence of CMX001 (final concentration of 0.31 μM). The cells were grown for 96 h and impedance was measured every 15 minutes for the first 6 h then every 30 minutes. Impedance was expressed as an arbitrary unit called the Cell Index.

RPTECs = test: as above; type: cell-based, human; conditions: for reduction of rate of RPTEC proliferation (xCelligence): CMX001 0.31 μM, 48 h postexposure
Description: as §1, §2, §3

[2] = Safety and pharmacokinetics of CMX001 in healthy volunteers; type: in vivo, human; conditions: for AUC / Cmax: blood, Human, analyte = label
Description: An initial study was conducted to evaluate the safety and pharmacokinetics of CMX001 in healthy volunteers. The study consisted of a single dose arm (SD) and a multiple dose arm (MD). In the single dose arm 7 cohorts of 6 subjects were treated (4 subjects received active drug and 2 placebo). Enrollment was staggered as 2 subjects (one active, one placebo) followed by 4 subjects (Groups A and B). The estimated single doses for the two highest doses treated for a […] subject were 40 mg (0.6 mg/kg cohort 6) and 70 mg (1 mg/kg cohort 7). In the multiple dose arm, cohort 6MD received 0.1 mg/kg on Day 0, 6 and 12; Cohort 7MD received 0.2 mg/kg on Day 0, 6 and 12. Levels of cidofovir, CMX001 and CMX064 (major metabolite) were measured in blood and urine of subjects during the course of the study. Gastrointestinal (GI) monitoring of the subjects included (a) monitoring for clinical signs of GI adverse events, (b) monitoring for clinical symptoms using a visual Analog Scale, (c) monitoring for appetite loss/anorexia, nausea, vomiting, diarrhea, constipation and intestinal gas/bloating, (d) laboratory tests for fecal occult blood; serum electrolytes, urine specific gravity, BUN/creatinine ratio; serum albumin, and lipids, and (e) diagnostic studies (the Wireless capsule endoscopy (PillCam®, Given Imaging)).

[3] = 3-way crossover bioavailability / food effect study in healthy volunteers; type: in vivo, human
Description: An open-label, 3-way crossover study in healthy volunteers comparing the bioavailability of CMX001 tablet versus solution formulation and the effect of food on CMX001 pharmacokinetics was completed. 24 healthy volunteers received 40 mg tablets (fed), 40 mg tablets (fasted), and 40 mg as a solution (fasted). […] Exposure as indicated by AUC was unchanged.

CMV = conditions: human, in vivo
[4] = cohort 6, 600 μg/kg, still blinded

## CCCCCCCCCCCCCCCCOCCCOP(=O)(O)CO[C@H](CO)Cn1ccc(N)nc1=O [CMX001, Hexadecyloxypropyl-cidofovir]
HSV-1; CMX001 versus cidofovir EC50
  Enhanced Activity: 250
HSV-1; Human alphaherpesvirus 1, MRC5, MRC-5
  EC50: 0.06 µM
[1]
  CC90: 10 µM
RPTECs; exponentially growing BKV infected cells
  reduction of rate of RPTEC proliferation (xCelligence): approximately 35%
RPTECs; exponentially growing uninfected cells
  reduction of rate of RPTEC proliferation (xCelligence): approximately 25%
RPTECs; estimated, RPTECs
  SI-90: 62.5
[2]; 0.05 mg/kg, CMX001 0.050 mg/kg
  AUC: 36.3 ng·h/mL
  Cmax: 5.63 ng/mL
[2]; 0.1 mg/kg, CMX001 0.100 mg/kg
  AUC: 133 ng·h/mL
  Cmax: 10.6 ng/mL
[2]; 0.2 mg/kg, CMX001 0.200 mg/kg
  AUC: 225 ng·h/mL
  Cmax: 24.5 ng/mL
[2]; 0.4 mg/kg, CMX001 0.400 mg/kg
  AUC: 526 ng·h/mL
  Cmax: 68.1 ng/mL
[2]; 0.6 mg/kg, CMX001 0.600 mg/kg
  AUC: 729 ng·h/mL
  Cmax: 115 ng/mL
[2]; CMX001 0.025 mg/kg
  AUC: 18.5 ng·h/mL
  Cmax: 2.36 ng/mL
[2]; [4]
  adverse events: No serious adverse events (SAEs)
  clinical laboratory values: No drug associated clinically significant changes to clinical laboratory values
[3]; 40 mg
  adverse events: no serious adverse events
  exposure as indicated by AUC: unchanged
[3]; 40 mg tablets
  reduction of plasma Cmax by a high fat meal: approximately 40%
[3]; 40 mg, fasted
  delay of Tmax, tablet versus liquid formulation: ~1 h
CMV
  serious adverse events: No trends were observed in serious adverse events
